Test results as given in patent publication US9920012B2, “Indazole guanidine F1F0-ATPase inhibitors and therapeutic uses thereof” (Lycera Corporation, priority 2012, dated 2018).
Where two headings read alike, the source gives them in different places.

Tests used:
[1] = system: Ramos cells; assay: Cytotoxicity in Ramos cells; type: cell-based; details: detection limit EC50=16 μM, read-out: Ramos Cell EC50
Method: (§1) Exemplary compounds described in above Examples were tested for activity against F1F0-ATPase by measuring the ability of the compounds to inhibit ATP synthesis. In addition, the compounds were assessed for cytotoxicity in Ramos cells. Inhibition of F1F0-ATPase activity in synthesizing ATP and cytotoxicity in Ramos cells were measured according to the procedures described in K. M. Johnson et al. Chemistry & Biology 2005, 12, 485-496.

[2] = molecular target: T1, F1F0-ATPase (Bos taurus, UniProt P13621); assay: Inhibition of F1F0-ATPase activity in synthesizing ATP; type: biochemical; details: inhibition of ATP synthesis; detection limit IC50=16 μM; read-out: ATP Syn IC50
T1 construct: from tissue
Method: as §1

Row | SMILES | EC50 [1] [µM] | IC50 [2] [µM] | EC50 ([1]; Homo sapiens) [µM]
1 | COC[C@H](C)N/C(=N/C(=O)c1ccc(F)c(F)c1)Nc1n[nH]c2ccc(C(F)(F)F)cc12 [Compound A-53] | > 16 | < 5 | –
2 | CCOCCNC(=NC(=O)c1ccc(F)c(F)c1)Nc1n[nH]c2ccc(C(F)(F)F)cc12 [Compound A-54] | – | < 5 | > 16
3 | CC1(CNC(=NC(=O)c2ccc(F)c(F)c2)Nc2n[nH]c3ccc(C(F)(F)F)cc23)COC1 [Compound A-55] | – | > 16 | > 16
4 | CC(C)CN/C(=N/C(=O)c1ccc(F)c(F)c1)Nc1n[nH]c2c(O)ccc(F)c12 [Compound A-56] | < 5 | < 5 | –
5 | CC(C)(C)N/C(=N/C(=O)c1ccc(F)c(F)c1)Nc1n[nH]c2c(C(F)(F)F)cccc12 [Compound A-57] | 5 to 16 | > 16 | –
6 | CC(C)CNC(=NC(=O)c1ccc(F)c(F)c1)Nc1n[nH]c2c(C(F)(F)F)cccc12 [Compound A-58] | – | 5 to 16 | 5 to 16
7 | COCC(C)NC(=NC(=O)c1ccc(F)c(F)c1)Nc1n[nH]c2c(C(F)(F)F)cccc12 (stereo not shown) [Compound A-59] | – | > 16 | > 16
8 | CCOCCNC(=NC(=O)c1ccc(F)c(F)c1)Nc1n[nH]c2c(C(F)(F)F)cccc12 [Compound A-60] | – | 5 to 16 | > 16
9 | CCOCCN/C(=N/C(=O)c1ccc(F)c(F)c1)Nc1n[nH]c2cc(Cl)ccc12 [Compound A-61] | < 5 | < 5 | –
10 | CC(C)(C)N/C(=N/C(=O)c1ccc(C(F)(F)F)cc1)Nc1n[nH]c2ncccc12 [Compound A-62] | > 16 | > 16 | –
11 | CCOCCN/C(=N/C(=O)c1ccc(Cl)cc1)Nc1n[nH]c2cc(Cl)ccc12 [Compound A-63] | 5 to 16 | < 5 | –
12 | COCC(C)NC(=NC(=O)c1ccc(Cl)cc1)Nc1n[nH]c2cc(Cl)ccc12 (stereo not shown) [Compound A-64] | – | < 5 | < 5
13 | CCOCCNC(=NC(=O)c1ccc(Cl)cc1)Nc1n[nH]c2cc(C(F)(F)F)ccc12 [Compound A-65] | – | < 5 | < 5
14 | COC[C@H](C)N/C(=N/C(=O)c1ccc(Cl)cc1)Nc1n[nH]c2cc(C(F)(F)F)ccc12 [Compound A-66] | < 5 | < 5 | –
15 | CC(C)CN/C(=N/C(=O)c1ccc(F)c(F)c1)Nc1n[nH]c2ccc(Br)cc12 [Compound A-67] | < 5 | < 5 | –
16 | CC(C)CN/C(=N/C(=O)c1ccc(F)c(F)c1)Nc1n[nH]c2cc(Br)ccc12 [Compound A-68] | < 5 | < 5 | –
17 | CC(C)(C)N/C(=N/C(=O)c1ccc(F)c(F)c1)Nc1n[nH]c2ncccc12 [Compound A-69] | > 16 | > 16 | –
18 | CC(C)CN/C(=N/C(=O)c1ccc(F)c(F)c1)Nc1n[nH]c2ncccc12 [Compound A-70] | > 16 | > 16 | –
19 | CC(C)(C)N/C(=N/C(=O)c1ccc(F)c(F)c1)Nc1n[nH]c2c(F)cccc12 [Compound A-72] | < 5 | 5 to 16 | –
20 | CC(C)CNC(=NC(=O)c1ccc(F)c(F)c1)Nc1n[nH]c2c(F)cccc12 [Compound A-73] | < 5 | 5 to 16 | –
21 | COC[C@H](C)N/C(=N/C(=O)c1ccc(F)c(F)c1)Nc1n[nH]c2c(F)cccc12 [Compound A-74] | 5 to 16 | 5 to 16 | –

Row | SMILES | EC50 [1] [µM] | IC50 [2] [µM] | EC50 ([1]; Homo sapiens) [µM]
22 | CCOCCN/C(=N/C(=O)c1ccc(F)c(F)c1)Nc1n[nH]c2c(F)cccc12 [Compound A-75] | > 16 | > 16 | –
23 | CC(C)N/C(=N/C(=O)c1ccc(F)c(F)c1)Nc1n[nH]c2c(F)cccc12 [Compound A-76] | < 5 | < 5 | –
24 | CCOCCCN/C(=N/C(=O)c1ccc(F)c(F)c1)Nc1n[nH]c2c(F)cccc12 [Compound A-77] | < 5 | 5 to 16 | –
25 | COC[C@H](C)N/C(=N/C(=O)c1cccc(Cl)c1)Nc1n[nH]c2cc(Cl)ccc12 [Compound A-78] | < 5 | < 5 | –
26 | COC[C@H](C)N/C(=N/C(=O)c1ccc(F)c(F)c1)Nc1n[nH]c2cc(F)ccc12 [Compound A-79] | < 5 | < 5 | –
27 | COC[C@H](C)N/C(=N/C(=O)c1ccc(Cl)cc1)Nc1n[nH]c2cc(F)ccc12 [Compound A-80] | < 5 | < 5 | –
28 | CCOCCN/C(=N/C(=O)c1ccc(F)c(F)c1)Nc1n[nH]c2cc(F)ccc12 [Compound A-81] | < 5 | < 5 | –
29 | CCOCCN/C(=N/C(=O)c1ccc(Cl)cc1)Nc1n[nH]c2cc(F)ccc12 [Compound A-82] | < 5 | < 5 | –
30 | CC(C)(O)CN/C(=N/C(=O)c1ccc(F)c(F)c1)Nc1n[nH]c2cc(F)ccc12 [Compound A-83] | < 5 | < 5 | –
31 | COCC(C)NC(=NC(=O)c1ccc(F)c(F)c1)Nc1n[nH]c2c(Cl)cccc12 (stereo not shown) [Compound A-84] | – | 5 to 16 | > 16
32 | COCC(C)NC(=NC(=O)c1cccc(Cl)c1)Nc1n[nH]c2cc(F)ccc12 (stereo not shown) [Compound A-85] | – | < 5 | > 16
33 | CCOCCN/C(=N/C(=O)c1cccc(Cl)c1)Nc1n[nH]c2cc(F)ccc12 [Compound A-86] | 5 to 16 | > 16 | –
34 | CC(C)(O)CN/C(=N/C(=O)c1cccc(Cl)c1)Nc1n[nH]c2cc(F)ccc12 [Compound A-87] | > 16 | > 16 | –
35 | COC[C@H](C)N/C(=N/C(=O)c1ccc(F)c(F)c1)Nc1n[nH]c2cc(C(F)(F)F)ccc12 [Compound A-88] | < 5 | > 16 | –
36 | COC[C@H](C)N/C(=N/C(=O)c1ccc(O)cc1)Nc1n[nH]c2cc(F)ccc12 [Compound A-89] | 5 to 16 | 5 to 16 | –
37 | CC(C)(O)CN/C(=N/C(=O)c1ccc(O)cc1)Nc1n[nH]c2cc(F)ccc12 [Compound A-90] | > 16 | > 16 | –
38 | CC(C)CN/C(=N/C(=O)c1ccc(O)cc1)Nc1n[nH]c2cc(F)ccc12 [Compound A-91] | > 16 | 5 to 16 | –
39 | CC(C)(C)N/C(=N/C(=O)c1ccc(O)cc1)Nc1n[nH]c2cc(F)ccc12 [Compound A-92] | < 5 | 5 to 16 | –
40 | COC[C@H](C)N/C(=N/C(=O)c1cccc(O)c1)Nc1n[nH]c2cc(F)ccc12 [Compound A-93] | 5 to 16 | 5 to 16 | –
41 | CC(C)(O)CN/C(=N/C(=O)c1cccc(O)c1)Nc1n[nH]c2cc(F)ccc12 [Compound A-94] | 5 to 16 | > 16 | –
42 | CC(C)CN/C(=N/C(=O)c1cccc(O)c1)Nc1n[nH]c2cc(F)ccc12 [Compound A-95] | 5 to 16 | < 5 | –

Row | SMILES | EC50 [1] [µM] | IC50 [2] [µM] | EC50 ([1]; Homo sapiens) [µM]
43 | CC(C)(C)N/C(=N/C(=O)c1cccc(O)c1)Nc1n[nH]c2cc(F)ccc12 [Compound A-96] | < 5 | < 5 | –
44 | CC(C)(C)NC(=NC(=O)c1cccc(Cl)c1)Nc1n[nH]c2cc(F)ccc12 [Compound A-97] | < 5 | < 5 | –
45 | CC(C)CNC(=NC(=O)c1cccc(Cl)c1)Nc1n[nH]c2cc(F)ccc12 [Compound A-98] | < 5 | < 5 | –
46 | CCOCCNC(=NC(=O)c1cccc(Cl)c1)Nc1n[nH]c2cc(F)ccc12 [Compound A-99] | 5 to 16 | < 5 | –
47 | CC(C)(C)NC(=NC(=O)c1ccc(F)c(F)c1)Nc1n[nH]c2cc(Cl)c(F)cc12 [Compound A-100] | < 5 | < 5 | –
48 | CC(C)CNC(=NC(=O)c1ccc(F)c(F)c1)Nc1n[nH]c2cc(Cl)c(F)cc12 [Compound A-101] | < 5 | < 5 | –
49 | CCOCCNC(=NC(=O)c1ccc(F)c(F)c1)Nc1n[nH]c2cc(Cl)c(F)cc12 [Compound A-102] | < 5 | < 5 | –
50 | COC[C@H](C)NC(=NC(=O)c1ccc(F)c(F)c1)Nc1n[nH]c2cc(Cl)c(F)cc12 [Compound A-103] | < 5 | < 5 | –
51 | CC(C)(C)NC(=NC(=O)c1cccc(Cl)c1)Nc1n[nH]c2cc(Cl)c(F)cc12 [Compound A-104] | < 5 | < 5 | –
52 | CC(C)CNC(=NC(=O)c1cccc(Cl)c1)Nc1n[nH]c2cc(Cl)c(F)cc12 [Compound A-105] | 5 to 16 | < 5 | –
53 | CCOCCNC(=NC(=O)c1cccc(Cl)c1)Nc1n[nH]c2cc(Cl)c(F)cc12 [Compound A-106] | – | < 5 | < 5
54 | COC[C@H](C)NC(=NC(=O)c1cccc(Cl)c1)Nc1n[nH]c2cc(Cl)c(F)cc12 [Compound A-107] | < 5 | < 5 | –
55 | CC(C)CNC(=NC(=O)c1ccc(O)cc1)Nc1n[nH]c2cc(Cl)ccc12 [Compound A-108] | 5 to 16 | < 5 | –
56 | CC(C)CNC(=NC(=O)c1ccc(O)cc1)Nc1n[nH]c2cc(F)ccc12 [Compound A-109] | 5 to 16 | 5 to 16 | –
57 | COc1cc(F)c2c(NC(=NC(=O)c3ccc(F)c(F)c3)NC(C)(C)C)n[nH]c2c1 [Compound A-110] | 5 to 16 | < 5 | –
58 | O=C(/N=C(/Nc1cc(F)cc(Cl)c1)Nc1n[nH]c2ccccc12)c1ccc(Cl)cc1 [Compound A-111] | – | < 5 | 5 to 16
59 | O=C(/N=C(/Nc1cc(F)cc(Cl)c1)Nc1n[nH]c2ccc(F)cc12)c1ccc(F)c(F)c1 [Compound A-112] | – | < 5 | < 5
60 | O=C(/N=C(/Nc1cc(F)cc(Cl)c1)Nc1n[nH]c2cccc(F)c12)c1ccc(F)c(F)c1 [Compound A-113] | – | > 16 | > 16
61 | COC[C@H](C)N/C(=N/C(=O)c1ccc(F)c(F)c1)Nc1nn(C)c2cc(C(F)(F)F)ccc12 [Compound A-114] | – | > 16 | > 16
62 | COC[C@H](C)N/C(=N/C(=O)c1ccc(Cl)cc1)Nc1nn(C)c2cc(C(F)(F)F)ccc12 [Compound A-115] | – | > 16 | > 16
